Consider one compound from patent US9051591B2, “Bacterium of enterobacteriaceae family producing L-aspartic acid or L-aspartic acid-derived metabolites and a method for producing L-aspartic acid or L-aspartic acid-derived metabolites” (AJINOMOTO CO., INC., priority 2010, dated 2015).

One test has as its target T1, Polaromonas sp. ADH (Polaromonas sp., UniProt Q126F5).
T1 sequence (Q126F5 1-267): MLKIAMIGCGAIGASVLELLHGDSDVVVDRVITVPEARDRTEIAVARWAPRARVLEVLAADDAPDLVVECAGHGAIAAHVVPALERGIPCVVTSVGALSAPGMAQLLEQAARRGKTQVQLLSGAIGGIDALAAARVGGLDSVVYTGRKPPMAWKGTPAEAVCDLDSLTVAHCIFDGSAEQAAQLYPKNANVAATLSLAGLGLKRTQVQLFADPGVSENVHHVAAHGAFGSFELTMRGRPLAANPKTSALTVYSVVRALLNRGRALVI
The conditions noted are these: Aspartic acid oxidative deamination; Michaelis-Menten plots.

The target in test [1] is T2, Polaromonas sp. aspartate dehydrogenase (Polaromonas sp., UniProt Q126F5).
T2 sequence (Q126F5 1-267): T1 sequence (Q126F5 1-267)
As to the kind of experiment: Regulatory properties of the ADH. The conditions noted are these: addition of 100 mM.

For another test, the target named is T3, ADH (Polaromonas sp.) (Polaromonas sp., UniProt Q126F5).
T3 sequence (Q126F5 1-267): T1 sequence (Q126F5 1-267)
As to the kind of experiment: Screening of substrate specificity, ADH. As to conditions: relative to aspartate; 20 mM substrate, 2 mM NAD^+, pH 9.8.

The next test has as its system ADH-Re. The test can be described thus: Screening of substrate specificity, ADH-Re. As to conditions: relative to aspartate; 20 mM substrate, 2 mM NAD^+, pH 9.8.
For another test, the system named is ADH-Bj. The test can be described thus: Screening of substrate specificity, ADH-Bj. As to conditions: relative to aspartate; 20 mM substrate, 2 mM NADP^+, pH 9.8.
The next test concerns ADH1-Rp. The test can be described thus: Screening of substrate specificity, ADH1-Rp. As to conditions: relative to aspartate; 20 mM substrate, 2 mM NADP^+, pH 9.8.
Test [2] has as its target Bradyrhizobium japonicum ADH-Bj (Bradyrhizobium diazoefficiens, UniProt Q89FY1). As to the kind of experiment: Kinetic parameters of the Bradyrhizobium japonicum ADH-Bj. The conditions noted are these: Aspartate oxidative deamination.
Test [3] deals with Rhodopseudomonas palustris ADH1-Rp (Rhodopseudomonas palustris, UniProt Q2J3V1). The test can be described thus: Kinetic parameters of the Rhodopseudomonas palustris AspDH 1. The conditions noted are these: Aspartic acid oxidative deamination.
Chain of Rhodopseudomonas palustris ADH1-Rp (Q2J3V1 entry or part of it): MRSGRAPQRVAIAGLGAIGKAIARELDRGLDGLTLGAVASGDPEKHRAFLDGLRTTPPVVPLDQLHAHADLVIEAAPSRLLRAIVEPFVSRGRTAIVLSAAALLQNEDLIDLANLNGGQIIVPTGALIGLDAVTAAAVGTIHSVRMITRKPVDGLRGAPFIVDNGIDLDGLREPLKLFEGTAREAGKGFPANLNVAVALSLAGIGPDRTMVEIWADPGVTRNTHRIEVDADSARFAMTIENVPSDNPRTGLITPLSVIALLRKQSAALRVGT

Chain of Bradyrhizobium japonicum ADH-Bj (Q89FY1 other isoform, or with tags, fused parts or gaps): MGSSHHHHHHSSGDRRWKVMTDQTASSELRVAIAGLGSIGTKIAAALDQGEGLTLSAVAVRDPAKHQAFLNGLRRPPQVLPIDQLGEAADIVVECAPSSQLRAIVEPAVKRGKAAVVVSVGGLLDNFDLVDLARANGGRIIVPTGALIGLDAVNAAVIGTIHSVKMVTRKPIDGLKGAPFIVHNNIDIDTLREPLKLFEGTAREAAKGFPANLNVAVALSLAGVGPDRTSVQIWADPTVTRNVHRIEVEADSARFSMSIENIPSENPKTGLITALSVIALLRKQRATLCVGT

Usually Km stands for the concentration of substrate that gives half-maximal velocity. By Vmax is commonly meant the top rate of the reaction or transport when substrate is in excess. By kcat is commonly meant the number of substrate molecules converted per active site and unit of time at saturation. As to `N[C@@H](CC(=O)O)C(=O)O` [Aspartic acid], at Polaromonas sp. ADH, the Km was determined as 1.3 ± 0.2 mM, the Vmax is 26.2 ± 0.9 µmol/min/mg and the kcat came to 12 ± 0.333 s⁻¹. Also, the “decrease of enzyme activity in forward reaction” value in test [1] is 3 times. For the same compound, the “Deamination activity, ADH” value at ADH (Polaromonas sp.) amounted to 100%. Further, the “Deamination activity, ADH-Re” value in the test with ADH-Re was 100%. Moreover, the “Deamination activity, ADH-Bj” value with ADH-Bj came out at 100 ± 11%. In the test with ADH1-Rp, the “Deamination activity, ADH1-Rp” value is 100 ± 8%. Further, in test [2], the Km is 27 ± 4 mM, the Vmax amounted to 14.3 ± 0.9 µmol/min/mg and the kcat amounted to 7.33 ± 0.5 s⁻¹. Besides, in test [3], the Km amounted to 13.4 ± 0.5 mM, the Vmax amounted to 5.61 ± 0.08 µmol/min/mg and the kcat was 2.87 ± 0.033 s⁻¹.
